For 34 compounds, IC50 results are on record in US9487515B2, “Compounds modulating c-fms and/or c-kit activity and uses therefor” (Plexxikon Inc., priority 2006, dated 2016).

Structures are written as SMILES.

The target of one assay is c-kit (Homo sapiens, UniProt P10721). The assay can be described thus: c-kit assays of Examples 40 and 41 (AlphaScreen kinase assays at 10 and 100 μM ATP, 33P-ATP filter assay, M-07e SCF-stimulated proliferation and phosphorylation). On the technique in general: Alpha assays give light when donor and acceptor beads are brought close together.
Chain of c-kit (P10721 with tags, fused parts or gaps): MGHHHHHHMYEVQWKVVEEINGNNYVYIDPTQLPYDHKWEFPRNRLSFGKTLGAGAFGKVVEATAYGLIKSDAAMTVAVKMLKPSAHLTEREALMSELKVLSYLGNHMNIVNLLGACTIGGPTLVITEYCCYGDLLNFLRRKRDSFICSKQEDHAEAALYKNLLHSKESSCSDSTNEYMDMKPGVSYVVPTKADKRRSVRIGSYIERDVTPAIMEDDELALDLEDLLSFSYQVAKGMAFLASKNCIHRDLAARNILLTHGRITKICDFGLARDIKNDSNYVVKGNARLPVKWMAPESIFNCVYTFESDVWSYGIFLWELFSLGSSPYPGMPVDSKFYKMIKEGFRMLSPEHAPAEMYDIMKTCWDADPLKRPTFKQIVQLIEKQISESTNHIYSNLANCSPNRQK
Another assay deals with MAP4K4 (HGK) (Homo sapiens, UniProt O95819). The assay can be described thus: HGK biochemical assay (AlphaScreen). Conditions: 10 μM ATP. As for the experimental part: Substrate was 10 nM biotin-ERM (T567/T564/T558, Cell Signaling, Inc., cat#1344). MAP4K4 kinase was at 0.5 ng per sample.
Chain of MAP4K4 (HGK) (O95819 whole entry): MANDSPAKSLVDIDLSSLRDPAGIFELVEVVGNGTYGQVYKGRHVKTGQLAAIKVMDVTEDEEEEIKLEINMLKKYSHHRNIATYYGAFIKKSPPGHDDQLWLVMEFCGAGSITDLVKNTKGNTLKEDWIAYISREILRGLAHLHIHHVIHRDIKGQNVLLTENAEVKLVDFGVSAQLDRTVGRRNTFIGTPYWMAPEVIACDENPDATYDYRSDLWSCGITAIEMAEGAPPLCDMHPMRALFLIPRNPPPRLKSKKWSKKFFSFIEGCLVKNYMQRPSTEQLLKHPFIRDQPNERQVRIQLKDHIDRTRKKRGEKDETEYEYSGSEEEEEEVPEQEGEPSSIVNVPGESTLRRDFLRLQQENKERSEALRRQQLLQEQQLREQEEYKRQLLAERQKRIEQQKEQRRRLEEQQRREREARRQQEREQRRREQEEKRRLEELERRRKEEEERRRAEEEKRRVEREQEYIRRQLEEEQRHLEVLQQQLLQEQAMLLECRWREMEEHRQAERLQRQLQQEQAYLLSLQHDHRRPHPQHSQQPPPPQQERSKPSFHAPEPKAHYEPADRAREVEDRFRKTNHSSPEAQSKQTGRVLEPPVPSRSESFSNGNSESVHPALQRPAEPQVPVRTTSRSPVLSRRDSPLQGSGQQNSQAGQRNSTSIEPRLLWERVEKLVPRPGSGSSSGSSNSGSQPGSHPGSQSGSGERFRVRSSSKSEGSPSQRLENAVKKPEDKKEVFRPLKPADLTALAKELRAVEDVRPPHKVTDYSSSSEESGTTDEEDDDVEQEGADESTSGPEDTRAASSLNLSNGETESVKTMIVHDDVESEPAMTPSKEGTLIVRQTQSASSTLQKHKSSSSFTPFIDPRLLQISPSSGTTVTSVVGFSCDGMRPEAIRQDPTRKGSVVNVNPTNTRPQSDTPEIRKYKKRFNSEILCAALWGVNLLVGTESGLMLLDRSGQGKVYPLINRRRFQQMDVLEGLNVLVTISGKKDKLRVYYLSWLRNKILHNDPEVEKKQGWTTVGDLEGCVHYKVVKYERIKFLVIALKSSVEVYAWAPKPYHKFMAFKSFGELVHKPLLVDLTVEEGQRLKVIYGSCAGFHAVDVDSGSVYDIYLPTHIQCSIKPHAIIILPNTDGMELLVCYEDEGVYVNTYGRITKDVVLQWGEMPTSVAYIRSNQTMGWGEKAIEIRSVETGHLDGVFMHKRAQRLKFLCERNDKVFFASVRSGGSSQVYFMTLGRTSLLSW
The target of another assay is T1, TrkA kinase (Homo sapiens, UniProt P04629).
T1 construct: purchased Upstate Biotech #14-571
T1 sequence (P04629 33-796): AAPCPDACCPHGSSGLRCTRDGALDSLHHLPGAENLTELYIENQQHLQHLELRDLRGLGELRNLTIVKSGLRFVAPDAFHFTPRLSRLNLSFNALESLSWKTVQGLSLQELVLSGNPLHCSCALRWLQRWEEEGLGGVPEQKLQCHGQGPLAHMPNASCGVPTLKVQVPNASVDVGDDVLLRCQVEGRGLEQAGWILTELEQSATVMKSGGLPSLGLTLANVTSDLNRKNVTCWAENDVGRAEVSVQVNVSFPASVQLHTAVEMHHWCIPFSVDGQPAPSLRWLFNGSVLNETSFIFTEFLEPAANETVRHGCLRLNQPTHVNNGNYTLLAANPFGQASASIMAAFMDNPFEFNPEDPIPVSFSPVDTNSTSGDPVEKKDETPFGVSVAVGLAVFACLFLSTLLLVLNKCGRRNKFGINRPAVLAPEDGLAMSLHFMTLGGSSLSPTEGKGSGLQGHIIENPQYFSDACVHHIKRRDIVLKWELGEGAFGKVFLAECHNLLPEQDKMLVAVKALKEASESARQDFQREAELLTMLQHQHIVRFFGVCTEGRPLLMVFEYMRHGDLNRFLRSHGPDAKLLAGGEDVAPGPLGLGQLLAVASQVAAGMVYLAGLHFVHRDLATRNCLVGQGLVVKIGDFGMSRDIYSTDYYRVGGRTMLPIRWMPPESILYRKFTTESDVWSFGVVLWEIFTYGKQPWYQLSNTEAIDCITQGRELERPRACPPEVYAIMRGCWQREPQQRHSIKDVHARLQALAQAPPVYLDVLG
The assay is described as follows: TrkA biochemical assay (AlphaScreen). Conditions: 100 μM ATP.

On to `Fc1ccc(CNc2nc(Cl)c(Cc3c[nH]c4ncccc34)s2)cc1` [P-0156, [4-Chloro-5-(1H-pyrrolo[2,3-b]pyridin-3-ylmethyl)-thiazol-2-yl]-(4-fluoro-benzyl)-amine], for which the IC50 at c-kit and at MAP4K4 (HGK) was less than 1000 nM each time.

In the case of `Cc1nn(C(=O)NCCc2ccc(F)cc2)c(C)c1Cc1c[nH]c2ncc(Cl)cc12` [P-0157, 4-(5-Chloro-1H-pyrrolo[2,3-b]pyridin-3-ylmethyl)-3,5-dimethyl-pyrazole-1-carboxylic acid [2-(4-fluoro-phenyl)-ethyl]-amide], the IC50 at TrkA kinase and against c-kit was less than 1000 nM in each case.

For the compound `Cc1cccc(CNc2nc(Cl)c(Cc3c[nH]c4ncccc34)s2)n1` [P-0171, [4-Chloro-5-(1H-pyrrolo[2,3-b]pyridin-3-ylmethyl)-thiazol-2-yl]-(6-methyl-pyridin-2-ylmethyl)-amine], the 50% inhibitory concentration (IC50) against TrkA kinase and on c-kit was less than 1000 nM in each case.

As to `O=C(c1cnc(NCc2ccc(F)cc2)s1)c1c[nH]c2ncccc12` [P-0177, [2-(4-fluoro-benzylamino)-thiazol-5-yl]-(1H-pyrrolo[2,3-b]pyridin-3-yl)-methanone], the IC50 on c-kit and at MAP4K4 (HGK) was less than 1000 nM in each case.

Consider `Cn1cc(-c2cnc3[nH]cc(Cc4cc(NCc5ccc(F)cc5)nn4C)c3c2)cn1` [P-0180, (4-Fluoro-benzyl)-{1-methyl-5-[5-(1-methyl-1H-pyrazol-4-yl)-1H-pyrrolo[2,3-b]pyridin-3-ylmethyl]-1H-pyrazol-3-yl}-amine], for which the half-inhibitory concentration (IC50) on TrkA kinase and on c-kit was less than 1000 nM each time.

`Fc1ccc(CNc2nc(Cl)c(Cc3c[nH]c4ncc(Cl)cc34)s2)cc1` [P-0195, [4-Chloro-5-(5-chloro-1H-pyrrolo[2,3-b]pyridin-3-ylmethyl)-thiazol-2-yl]-(4-fluoro-benzyl)-amine]: the IC50 at c-kit and at MAP4K4 (HGK) was less than 1000 nM throughout.

With `Cc1nc(CNc2nc(Cl)c(Cc3c[nH]c4ncc(Cl)cc34)s2)cs1` [P-0201, [4-Chloro-5-(5-chloro-1H-pyrrolo[2,3-b]pyridin-3-ylmethyl)-thiazol-2-yl]-(2-methyl-thiazol-4-ylmethyl)-amine], the IC50 on c-kit and on MAP4K4 (HGK) was less than 1000 nM throughout.

In the case of `Clc1ccc(CNc2nc(Cl)c(Cc3c[nH]c4ncc(Cl)cc34)s2)nc1` [P-0203, [4-Chloro-5-(5-chloro-1H-pyrrolo[2,3-b]pyridin-3-ylmethyl)-thiazol-2-yl]-(5-chloro-pyridin-2-ylmethyl)-amine], the IC50 at c-kit and at MAP4K4 (HGK) was less than 1000 nM each time.

Regarding `Fc1ccc(CNc2nc(Cl)c(Cc3c[nH]c4ncccc34)s2)nc1` [P-0206, [4-Chloro-5-(1H-pyrrolo[2,3-b]pyridin-3-ylmethyl)-thiazol-2-yl]-(5-fluoro-pyridin-2-ylmethyl)-amine], the IC50 against c-kit and on MAP4K4 (HGK) was less than 1000 nM throughout.

In turn, `COc1cncc(CNc2nc(Cl)c(Cc3c[nH]c4ncccc34)s2)c1` [P-0207, [4-Chloro-5-(1H-pyrrolo[2,3-b]pyridin-3-ylmethyl)-thiazol-2-yl]-(5-methoxy-pyridin-3-ylmethyl)-amine] registered an IC50 at MAP4K4 (HGK) of less than 1000 nM.

Regarding `Fc1cncc(CNc2nc(Cl)c(Cc3c[nH]c4ncc(Cl)cc34)s2)c1` [P-0231, [4-Chloro-5-(5-chloro-1H-pyrrolo[2,3-b]pyridin-3-ylmethyl)-thiazol-2-yl]-(5-fluoro-pyridin-3-ylmethyl)-amine], the IC50 against MAP4K4 (HGK) was less than 1000 nM.

Regarding `Fc1ccc(CNc2nc(Cl)c(Cc3c[nH]c4ncc(Cl)cc34)s2)nc1` [P-0240, [4-Chloro-5-(5-chloro-1H-pyrrolo[2,3-b]pyridin-3-ylmethyl)-thiazol-2-yl]-(5-fluoro-pyridin-2-ylmethyl)-amine], the IC50 on c-kit and against MAP4K4 (HGK) was less than 1000 nM throughout.

As for `COc1cncc(CNc2nc(Cl)c(Cc3c[nH]c4ncc(Cl)cc34)s2)c1` [P-0241, [4-Chloro-5-(5-chloro-1H-pyrrolo[2,3-b]pyridin-3-ylmethyl)-thiazol-2-yl]-(5-methoxy-pyridin-3-ylmethyl)-amine], the IC50 at MAP4K4 (HGK) is less than 1000 nM.

Take `Cc1cccc(CNc2nc(Cl)c(Cc3c[nH]c4ncc(Cl)cc34)s2)n1` [P-0255, [4-Chloro-5-(5-chloro-1H-pyrrolo[2,3-b]pyridin-3-ylmethyl)-thiazol-2-yl]-(6-methyl-pyridin-2-ylmethyl)-amine]: the half-inhibitory concentration (IC50) against c-kit and against MAP4K4 (HGK) was less than 1000 nM throughout.

Consider `FC(F)(F)Oc1ccccc1CNc1ncc(Cc2c[nH]c3ncccc23)cn1` [P-0303, [5-(1H-Pyrrolo[2,3-b]pyridin-3-ylmethyl)-pyrimidin-2-yl]-(2-trifluoromethoxy-benzyl)-amine], for which the IC50 at TrkA kinase and on c-kit was less than 1000 nM each time.

`Fc1cncc(CNc2ccc(Cc3c[nH]c4ncc(Cl)cc34)cn2)c1` [P-0324, [5-(5-chloro-1H-pyrrolo[2,3-b]pyridin-3-ylmethyl)-pyridin-2-yl]-(5-fluoro-pyridin-3-ylmethyl)-amine]: the IC50 against c-kit and against MAP4K4 (HGK) was less than 1000 nM throughout.

Regarding `Cc1cnc2[nH]cc(Cc3ccc(NCc4c(F)cccc4F)nc3)c2c1` [P-0341, (2,6-Difluoro-benzyl)-[5-(5-methyl-1H-pyrrolo[2,3-b]pyridin-3-ylmethyl)-pyridin-2-yl]-amine], the IC50 on c-kit and on MAP4K4 (HGK) was less than 1000 nM in each case.

With `COc1ccc(CNc2ccc(Cc3c[nH]c4ncc(Cl)cc34)c(F)n2)cn1` [P-0379, [5-(5-Chloro-1H-pyrrolo[2,3-b]pyridin-3-ylmethyl)-6-fluoro-pyridin-2-yl]-(6-methoxy-pyridin-3-ylmethyl)-amine], on c-kit, the IC50 is less than 1000 nM.

Regarding `Fc1ccc(Cl)cc1CNc1ccc(Cc2c[nH]c3ncccc23)cn1` [P-0382, (5-Chloro-2-fluoro-benzyl)-[5-(1H-pyrrolo[2,3-b]pyridin-3-ylmethyl)-pyridin-2-yl]-amine], on c-kit, the IC50 was less than 1000 nM.

`CCc1ccccc1CNc1ccc(Cc2c[nH]c3ncccc23)cn1` [P-0383, (2-Ethyl-benzyl)-[5-(1H-pyrrolo[2,3-b]pyridin-3-ylmethyl)-pyridin-2-yl]-amine]: on c-kit, the IC50 is less than 1000 nM.

Turning to `CNc1ncccc1CNc1ccc(Cc2c[nH]c3ncccc23)cn1` [P-0385, Methyl-(3-{[5-(1H-pyrrolo[2,3-b]pyridin-3-ylmethyl)-pyridin-2-ylamino]-methyl}-pyridin-2-yl)-amine], at c-kit, the IC50 is less than 1000 nM.

Take `CS(=O)(=O)c1ccc(CNc2ccc(Cc3c[nH]c4ncccc34)cn2)c(Cl)c1` [P-0387, (2-Chloro-4-methanesulfonyl-benzyl)-[5-(1H-pyrrolo[2,3-b]pyridin-3-ylmethyl)-pyridin-2-yl]-amine]: on c-kit, the IC50 was less than 1000 nM.

On c-kit, `FC(F)Oc1ccccc1CNc1ncc(Cc2c[nH]c3ncc(Cl)cc23)cn1` [P-0390, [5-(5-Chloro-1H-pyrrolo[2,3-b]pyridin-3-ylmethyl)-pyrimidin-2-yl]-(2-difluoromethoxy-benzyl)-amine] yielded an IC50 of less than 1000 nM.

At c-kit, `Fc1c(Cl)cccc1CNc1ncc(Cc2c[nH]c3ncc(Cl)cc23)cn1` [P-0392, (3-Chloro-2-fluoro-benzyl)-[5-(5-chloro-1H-pyrrolo[2,3-b]pyridin-3-ylmethyl)-pyrimidin-2-yl]-amine] gave an IC50 of less than 1000 nM.

`Fc1c(CNc2ncc(Cc3c[nH]c4ncc(Cl)cc34)cn2)cccc1C(F)(F)F` [P-0393, [5-(5-Chloro-1H-pyrrolo[2,3-b]pyridin-3-ylmethyl)-pyrimidin-2-yl]-(2-fluoro-3-trifluoromethyl-benzyl)-amine] showed a half-inhibitory concentration (IC50) against c-kit of less than 1000 nM.

Consider `Fc1cc(C(F)(F)F)ccc1CNc1ncc(Cc2c[nH]c3ncc(Cl)cc23)cn1` [P-0394, [5-(5-Chloro-1H-pyrrolo[2,3-b]pyridin-3-ylmethyl)-pyrimidin-2-yl]-(2-fluoro-4-trifluoromethyl-benzyl)-amine], for which the IC50 at c-kit was less than 1000 nM.

For the compound `Fc1cccc(CNc2ncc(Cc3c[nH]c4ncc(Cl)cc34)cn2)c1F` [P-0395, [5-(5-Chloro-1H-pyrrolo[2,3-b]pyridin-3-ylmethyl)-pyrimidin-2-yl]-(2,3-difluoro-benzyl)-amine], at c-kit, the IC50 was less than 1000 nM.

Consider `Fc1ccc(CNc2ncc(Cc3c[nH]c4ncc(Cl)cc34)cn2)c(Cl)c1` [P-0396, (2-Chloro-4-fluoro-benzyl)-[5-(5-chloro-1H-pyrrolo[2,3-b]pyridin-3-ylmethyl)-pyrimidin-2-yl]-amine], for which the IC50 against c-kit was less than 1000 nM.

In turn, `FC(F)(F)Oc1ccccc1CNc1ncc(Cc2c[nH]c3ncc(Cl)cc23)cn1` [P-0402, [5-(5-Chloro-1H-pyrrolo[2,3-b]pyridin-3-ylmethyl)-pyrimidin-2-yl]-(2-trifluoromethoxy-benzyl)-amine] showed an IC50 at c-kit of less than 1000 nM.

In turn, `O=C(c1ccc(NCc2ccccc2F)nc1)c1c[nH]c2ncccc12` [P-0403, [6-(2-fluoro-benzylamino)-pyridin-3-yl]-(1H-pyrrolo[2,3-b]pyridin-3-yl)-methanone] returned an IC50 on MAP4K4 (HGK) of less than 1000 nM.

`O=C(c1ccc(NCc2ccccc2F)nc1)c1c[nH]c2ncc(Cl)cc12` [P-0404, (5-chloro-1H-pyrrolo[2,3-b]pyridin-3-yl)-[6-(2-fluoro-benzylamino)-pyridin-3-yl]-methanone]: the concentration for half-maximal inhibition (IC50) against c-kit was less than 1000 nM.

`Fc1ccc(Cl)c(CNc2ncc(Cc3c[nH]c4ncccc34)cn2)c1` [P-0407, (2-Chloro-5-fluoro-benzyl)-[5-(1H-pyrrolo[2,3-b]pyridin-3-ylmethyl)-pyrimidin-2-yl]-amine] returned an IC50 at c-kit of less than 1000 nM.

In turn, `Fc1ccc(Cl)c(CNc2ncc(Cc3c[nH]c4ncc(Cl)cc34)cn2)c1` [P-0408, (2-Chloro-5-fluoro-benzyl)-[5-(5-chloro-1H-pyrrolo[2,3-b]pyridin-3-ylmethyl)-pyrimidin-2-yl]-amine] gave an IC50 at c-kit of less than 1000 nM.

On to `FC(F)(F)COc1ccc(CNc2ccc(Cc3c[nH]c4ncc(Cl)cc34)cn2)cn1` [P-0409, [5-(5-Chloro-1H-pyrrolo[2,3-b]pyridin-3-ylmethyl)-pyridin-2-yl]-[6-(2,2,2-trifluoro-ethoxy)-pyridin-3-ylmethyl]-amine], for which, on c-kit, the 50% inhibitory concentration (IC50) is less than 1000 nM.

In general, IC50 refers to the midpoint of a concentration-inhibition curve.
